# Measured values as given in the supplement of paper PMC10307832.
# Legend:
# Experiment in all cases: relative viability (nuclei count vs DMSO), 5 days (fraction); higher = more cells survive
# SGI-1776 + Foretinib = compound: CN1CCC(CNc2ccc3ncc(-c4cccc(OC(F)(F)F)c4)n3n2)CC1 [SGI-1776] + COc1cc2c(Oc3ccc(NC(=O)C4(C(=O)Nc5ccc(F)cc5)CC4)cc3F)ccnc2cc1OCCCN1CCOCC1 [Foretinib] (partner 0.25 µM)
# Outline: (§1)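 Relative viability was taken as the ratio of nuclei in treated wells to nuclei in vehicle wells. Lung cancer cell lines in 1536-well plates received compounds by pin tool one day after seeding, either one drug alone or a fixed anchor-drug dose plus five library-drug doses (not always all listed) in √10 steps. Nuclei were counted on 4× images after 5 days of treatment, and values are medians of duplicate plates.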
# [1] = compound: C1COCCN1C2=NC(=NC3=C2OC4=C3C=CC=N4)C5=CC(=CC=C5)NC(=O)C6=CN=C(C=C6)N + COc1cc2c(Oc3ccc(NC(=O)C4(C(=O)Nc5ccc(F)cc5)CC4)cc3F)ccnc2cc1OCCCN1CCOCC1 [Foretinib] (partner 0.25 µM)
# Outline: as §1
# SGI-1776 + Luminespib = compound: CN1CCC(CNc2ccc3ncc(-c4cccc(OC(F)(F)F)c4)n3n2)CC1 [SGI-1776] + CCNC(=O)c1noc(-c2cc(C(C)C)c(O)cc2O)c1-c1ccc(CN2CCOCC2)cc1 [Luminespib] (partner 0.01 µM)
# Outline: as §1
# Entinostat + AZD7762 = compound: Nc1ccccc1NC(=O)c1ccc(CNC(=O)OCc2cccnc2)cc1 [Entinostat] + NC(=O)Nc1cc(-c2cccc(F)c2)sc1C(=O)N[C@H]1CCCNC1 [AZD7762] (partner 0.2 µM)
# Outline: as §1
Cell Line,relative viability (SGI-1776 + Foretinib; first compound 0.08 µM),relative viability (SGI-1776 + Foretinib; first compound 0.8 µM),relative viability (SGI-1776 + Foretinib; first compound 2.53 µM),relative viability (SGI-1776 + Foretinib; first compound 8 µM),relative viability ([1]; first compound 0.02 µM),relative viability ([1]; first compound 0.06325 µM),relative viability ([1]; first compound 0.2 µM),relative viability ([1]; first compound 0.6325 µM),relative viability ([1]; first compound 2 µM),relative viability (SGI-1776 + Luminespib; first compound 0.08 µM),relative viability (SGI-1776 + Luminespib; first compound 0.8 µM),relative viability (SGI-1776 + Luminespib; first compound 2.53 µM),relative viability (SGI-1776 + Luminespib; first compound 8 µM),relative viability (Entinostat + AZD7762; first compound 0.02 µM),relative viability (Entinostat + AZD7762; first compound 0.06325 µM),relative viability (Entinostat + AZD7762; first compound 0.2 µM),relative viability (Entinostat + AZD7762; first compound 0.6325 µM),relative viability (Entinostat + AZD7762; first compound 2 µM)
SW 1573,0.949,0.846,0.846,0.791,0.931,1.07,1.09,0.877,0.688,0.281,0.653,0.314,0.185,–,–,–,–,–
LU99A,0.868,0.8,0.784,0.41,0.824,0.821,0.75,0.582,0.497,0.245,0.247,0.253,0.254,0.353,0.475,0.378,0.224,0.254
NCI-H1299,1.08,1.11,1.07,1.01,1.01,1.08,1.1,1.05,0.806,–,–,–,–,–,–,–,–,–
NCI-H1355,0.953,1.02,0.958,0.919,0.995,1.12,1.1,0.927,0.642,0.68,0.625,0.607,0.551,0.634,0.789,0.618,0.546,0.369
HARA,1.04,0.946,0.718,0.913,0.953,1.11,1.09,0.882,0.528,0.862,0.67,0.67,0.0476,0.37,0.229,0.34,0.215,0.244
LXF-289,0.98,0.974,1.01,0.971,0.994,1,0.985,0.952,0.747,0.688,0.654,0.665,0.598,1.05,1.14,1.07,0.952,0.473
201T,1.13,1.09,1.03,1.02,1.31,1.05,1.1,1.1,1.09,1.04,1.09,1.05,1.03,0.694,0.711,0.601,0.402,0.328
HCC-827,1.04,1.13,1.09,0.647,1.01,1.06,0.99,1.08,0.97,0.551,0.622,0.782,0.348,0.247,0.244,0.159,0.203,0.159
NCI-H1703,0.403,0.322,0.291,0.282,0.284,0.413,0.371,0.305,0.285,–,–,–,–,0.109,0.153,0.129,0.116,0.106
NCI-H1975,0.961,0.943,0.827,0.692,1.01,0.857,0.896,0.886,0.498,0.302,0.137,0.208,0.106,0.628,0.612,0.669,0.476,0.395
